From US20170087167A1, “MODIFICATION OF DRUGS FOR INCORPORATION INTO NANOPARTICLES” (UNIVERSITY OF GEORGIA RESEARCH FOUNDATION, INC., priority 2015, published 2017)

Legend:
[1] = tested on: TNF-α; experiment: In vivo inflammation study, LPS stimulated mouse model, serum TNF-α by ELISA; set-up: species or system BALB/c Albino male mice; conditions: 20 mg/kg (with respect to aspirin) i.v.
Description: (§1) To explore the anti-inflammatory properties of the new aspirin derivative in NP formulation in vivo, we used mice stimulated with lipopolysaccharide (LPS). […] In our studies following similar protocol in C57BL/6 or BALB/c (albino) mice, we observed enhanced levels of TNF-α and IL-6 in the serum after intraperitonial administration of 100 μg of LPS per animal and the levels peaked at 1.5 and 3 h, respectively for TNF-α and IL-6. Next, 8 week old BALB/c male mice were administered with saline or aspirin (20 mg/kg) or NT-(Asp)4-NP (20 mg/kg with respect to aspirin) or T-(Asp)4-NP (20 mg/kg with respect to aspirin) by i.v. injections and after 12 h, these animals were subsequently treated with intraperitonially injected LPS for 1.5 h and 3 h (FIG. 3A). Serum samples were isolated from the treated animals and pro-inflammatory and anti-inflammatory cytokine levels in the serum samples were evaluated by the enzyme-linked immunosorbent assay (ELISA).
(§2) Anti-inflammatory properties of T/NT-(Asp)4-NPs and aspirin were evaluated in LPS stimulated mouse model. […] The absorbance of the product formed was recorded at 450 nm using a BioTek Synergy HT well plate reader.

[2] = tested on: IL-6; experiment: In vivo inflammation study, LPS stimulated mouse model, serum IL-6 by ELISA; set-up: species or system BALB/c Albino male mice; conditions: 12 h before LPS
Description: as §1, §2

CC(=O)Oc1ccccc1C(=O)O [aspirin, acetylsalicylic acid]
serum TNF-α level compared to only LPS ([1]; 12 h before LPS i.p., LPS for 1.5 h): non-significant | serum TNF-α level ([1]; 12 h before LPS, LPS for 3 h): did not show any significant differences | serum IL-6 level compared to only LPS ([2]; 20 mg/kg (with respect to aspirin) i.v., LPS for 1.5 h): significantly reduced | serum IL-6 level compared to LPS alone ([2]; 20 mg/kg i.v., LPS for 3 h): reduced IL-6 levels
